Laboratory results taken from US20070275936A1, “Formulations and Treatment Methods” (priority 1998, published 2007).

Columns and labels:
[1] = tested on: BALB/c mice; test: Reversal of immunosenescence: HBsAg vaccination of aged mice; format: in vivo; conditions: for mice producing anti-HBsAg in response to secondary vaccination: groups of 8, 0.3 mg/mouse at primary vaccination
Procedure: Healthy aged (20-month) or immunologically-mature (3-month) BALB/c mice were vaccinated with hepatitis B surface antigen (HBsAg) (2 μg; Recombivax-HB; Merck) and Alum (2.75 μg). The aged mice were vaccinated with the antigen and also received a single subcutaneous injection of either 0.3 mg or 3.0 mg of 3β,7β,17β-trihydroxyandrost-5-ene (AET), BrEA or 7-oxodehydroepiandrosterone, dehydroepiandrosterone or the vehicle (placebo control). The AET, BrEA hemihydrate or dehydroepiandrosterone was present in a formulation that contained 60 mg/mL of the compound suspended in 0.1% w/v carboxymethyl cellulose sodium in 0.9% saline. 7-Oxodehydroepiandrosterone was in a formulation that contained 60 mg/mL of the compound suspended in 0.1% w/v gum arabic in 0.9% saline. A concentration of 6 mg/mL was obtained by diluting the 60 mg/mL formulation with vehicle that lacked the active substance.
Blood samples were collected 14, 21 and 34 days after treatment and the sera were analyzed by ELISA to determine the concentration of HBsAg-specific IgG (total IgG). In addition, samples obtained on day 21 were analyzed to determine the concentration of HBsAg-specific IgG1 and IgG2a subclasses. The results summarized below were average values obtained with blood samples collected 21 days after vaccination of groups of 8 mice. Subcutaneous injection was performed after shaving the hair from the thighs of each mouse. The injected volume was 50 μL for compound (3.0 mg or 0.3 mg) or placebo, and for vaccine preparation. The vehicle control consisted of carboxymethylcellulose (0.5%) in saline (0.9%). Antibody titers were determined by ELISA.
Secondary antibody response. Later, 42 days after the initial exposure to HBsAg, serum samples were taken from the mice described in the previous section and these were tested for anti-HBsAg IgG. At this time-point, vaccine-specific IgG titers were either low or undetectable. Three days later (45 days after first vaccination), the mice were injected again with HBsAg in Alum, but this time, none of the mice received immunosteroid (secondary vaccination). Serum samples collected 7 days and 14 days after the second exposure to HBsAg vaccine were assayed for anti-HBsAg antibody. […] In contrast, in aged mice that had received no immunosteroid with the first HBsAg injection, low levels of anti-HBsAg were detectable, and only in 4 of the 8 mice in this group was antibody detectable. Increases in anti-HBsAg titers were seen following secondary vaccination in aged animals that had been treated with immunosteroid in conjunction with the first HBsAg exposure. The anti-HBsAg antibody titer in serum increased following secondary vaccination in all 8 mice in the groups of aged mice that were treated at primary vaccination with the higher dose (3 mg/mouse) of AET, BrEA or 7-oxodehydroepiandrosterone, or with dehydroepiandrosterone (0.3 mg/mouse). In those aged mice that had received the lower dose (0.3 mg/mouse) of AET, BrEA or 7-oxodehydroepiandrosterone at vaccination, an intermediate response was seen, with 6 of the 8 mice producing detectable anti-HBsAg in response to secondary vaccination.

[2] = tested on: Plasmodium falciparum; test: Inhibition of parasite growth in culture; format: cell-based
Procedure: The effect of Epi (16α-bromo-epiandrosterone) on parasite (Plasmodium falciparum) growth was shown. EPI was active at a concentration of 1 μM.
Parasitemias were determined by standard methods (microscopic inspection of at least 500 cells, stained with Diff-Quick™ (Baxter). Parasites were cultured under standard conditions in RPMI-1640 supplemented with Hepes/Glucose (10 mM), glutamine (0.3 g/liter) and 10% human plasma. The hematocrit was 1%.

[3] = tested on: HIV infected patients with chronic diarrhea; test: Treatment of chronic diarrhea in HIV infected patients; format: in vivo, human; conditions: two HIV infected patients, 60 mg s.c. daily for 10 days, during the period of dosing
Procedure: Two HIV infected patients with chronic diarrhea were dosed with BrEA as follows. A BrEA formulation (40 mg/mL BrEA in 25% v/v PEG 300, 12.5% v/v ethanol, 5% v/v benzyl benzoate, ˜57.5% v/v propylene glycol) was delivered subcutaneously. The patients received 60 mg of BrEA in 1.5 mL daily for 10 days. […] After the 10-day dosing period ended, diarrhea resumed. In other patients receiveing oral BrEA, diarrhea also went into remission.

With `C[C@]12CC[C@H](O)CC1=CC[C@@H]1[C@@H]2CC[C@]2(C)C(=O)CC[C@@H]12` [DHEA, dehydroepiandrosterone, reference compound] the “mice producing anti-HBsAg in response to secondary vaccination” value [1] was 8 mice.
`C[C@]12CC[C@H](O)C[C@@H]1CC[C@@H]1[C@@H]2CC[C@]2(C)C(=O)[C@H](Br)C[C@@H]12` [BrEA, 16α-bromo-3β-hydroxy-5α-androstane-17-one] showed a Parasitemia after treatment ([2]; 50 nM, 24 hrs, Time 0 2%, control + DMSO 8.80%) of 9.90%, a Parasitemia after treatment ([2]; 50 nM, 48 hrs, Time 0 2%, control + DMSO 11%) of 9.20% and a Parasitemia after treatment ([2]; 50 nM, 72 hrs, Time 0 2%, control + DMSO 8%) of 8.30%. The Parasitemia after treatment ([2]; 1 μM, 24 hrs, Time 0 2%, control + DMSO 8.80%) was 5.80%, the Parasitemia after treatment ([2]; 1 μM, 24 hrs, Time 0 5%, control + DMSO 5.40%) was 5.70% and the Parasitemia after treatment ([2]; 1 μM, 48 hrs, Time 0 2%, control + DMSO 11%) was 6.10%. For the same molecule, the Parasitemia after treatment ([2]; 1 μM, 48 hrs, Time 0 5%, control + DMSO 3.10%) was 5.50%, the Parasitemia after treatment ([2]; 1 μM, 72 hrs, Time 0 2%, control + DMSO 8%) was 2.10% and the Parasitemia after treatment ([2]; 1 μM, 72 hrs, Time 0 5%, control + DMSO 5.20%) was 1.60%. For the same molecule, the Parasitemia after treatment ([2]; 2.5 μM, 24 hrs, Time 0 2%, control + DMSO 8.80%) was 7.30%, the Parasitemia after treatment ([2]; 2.5 μM, 48 hrs, Time 0 2%, control + DMSO 11%) was 5.80% and the Parasitemia after treatment ([2]; 2.5 μM, 72 hrs, Time 0 2%, control + DMSO 8%) was 3.20%. The Parasitemia after treatment ([2]; 5 μM, 24 hrs, Time 0 2%, control + DMSO 8.80%) was 5.40%, the Parasitemia after treatment ([2]; 5 μM, 48 hrs, Time 0 2%, control + DMSO 11%) was 6% and the Parasitemia after treatment ([2]; 5 μM, 72 hrs, Time 0 2%, control + DMSO 8%) was 1.80%. It also gave a Parasitemia after treatment ([2]; 10 μM, 24 hrs, Time 0 2%, control + DMSO 8.80%) of 4.20%, a Parasitemia after treatment ([2]; 10 μM, 24 hrs, Time 0 5%, control + DMSO 5.40%) of 5.60% and a Parasitemia after treatment ([2]; 10 μM, 48 hrs, Time 0 2%, control + DMSO 11%) of 3%. For the same molecule, the Parasitemia after treatment ([2]; 10 μM, 48 hrs, Time 0 5%, control + DMSO 3.10%) was 0.90%, the Parasitemia after treatment ([2]; 10 μM, 72 hrs, Time 0 2%, control + DMSO 8%) was 0% and the Parasitemia after treatment ([2]; 10 μM, 72 hrs, Time 0 5%, control + DMSO 5.20%) was 0%. For the same molecule, the Parasitemia after treatment ([2]; 50 μM, 24 hrs, Time 0 2%, control + DMSO 8.80%) was 0%, the Parasitemia after treatment ([2]; 50 μM, 48 hrs, Time 0 2%, control + DMSO 11%) was 0% and the Parasitemia after treatment ([2]; 50 μM, 72 hrs, Time 0 2%, control + DMSO 8%) was 0%. It also gave a Parasitemia after treatment ([2]; 100 μM, 24 hrs, Time 0 5%, control + DMSO 5.40%) of 0%, a Parasitemia after treatment ([2]; 100 μM, 48 hrs, Time 0 5%, control + DMSO 3.10%) of 0% and a Parasitemia after treatment ([2]; 100 μM, 72 hrs, Time 0 5%, control + DMSO 5.20%) of 0%. The Parasitemia after treatment ([2]; 500 μM, 24 hrs, Time 0 5%, control + DMSO 5.40%) was 0%, the Parasitemia after treatment ([2]; 500 μM, 48 hrs, Time 0 5%, control + DMSO 3.10%) was 0% and the Parasitemia after treatment ([2]; 500 μM, 72 hrs, Time 0 5%, control + DMSO 5.20%) was 0%. For the same molecule, the “concentration at which active on parasite growth” value ([2]; P. falciparum culture) was 1 µM, the “effect on chronic diarrhea” value [3] was “the diarrhea ceased” and the “mice producing anti-HBsAg in response to secondary vaccination” value [1] was 6 mice. The “mice with increased anti-HBsAg antibody titer following secondary vaccination” value ([1]; groups of 8, 3 mg/mouse at primary vaccination) was 8 mice.
